Data: the NIST ThermoML archive (doi:10.1016/j.fluid.2005.01.007)
± gives the expanded uncertainty stated by the source.

How the values were obtained:
[1] = Liquid; for mass density: 298.15 K, 101.33 kPa
[2] = refractive index (Na D-line) (dimensionless); conditions: 298.15 K; 101.33 kPa; Liquid; Standard Abbe refractometry

Row | Compound | mass density [1] | vapor or sublimation pressure ([1]; 372.33 K) | refractive index [2] | vapor or sublimation pressure ([1]; 329.26 K) | vapor or sublimation pressure ([1]; 351.44 K)
1 | CC(C)CC(C)(C)C [2,2,4-trimethylpentane] | 687.72 ± 0.81 kg/m3 | 101.32 ± 0.55 kPa | 1.38887 ± 0.00072 | – | –
2 | CC(C)=O [acetone] | 785.47 ± 0.61 kg/m3 | – | 1.35597 ± 0.00072 | 101.32 ± 0.55 kPa | –
3 | CCO [ethanol] | 785.09 ± 0.62 kg/m3 | – | 1.35926 ± 0.00072 | – | 101.32 ± 0.55 kPa
